Paper PMC3902948 (Nucleic Acids Research, 2013)

Key:
Settings in all cases: read-out: In absence of RNA / KM; no RNA; 100 mM NaCl, 10 mM Tris pH 7.5, 2 mM MgCl2
Prp43-Ntr1(62–110) = test system: Prp43-Ntr1(62–110)
[1] = test system: Prp43(1–745)-Ntr1(51–110)
Prp43-Ntr1(51–110) = test system: Prp43-Ntr1(51–110)
Prp43-Ntr1(51–102) = test system: Prp43-Ntr1(51–102)
Prp43-Ntr1(51–99) = test system: Prp43-Ntr1(51–99)
Prp43-Ntr1(59–110) = test system: Prp43-Ntr1(59–110)

Km (Prp43-Ntr1(62–110)): 10.6 ± 2.18 µM
Km [1]: 28.3 ± 4.61 µM
Km (Prp43-Ntr1(51–110)): 39.5 ± 3.92 µM
Km (Prp43-Ntr1(51–102)): 17.5 ± 2.43 µM
Km (Prp43-Ntr1(51–99)): 10.7 ± 1.38 µM
Km (Prp43-Ntr1(59–110)): 8.77 ± 1.09 µM
Structure (SMILES): Nc1ncnc2c1ncn2[C@@H]1O[C@H](COP(=O)(O)OP(=O)(O)OP(=O)(O)O)[C@@H](O)[C@H]1O [ATP]
